Measured values taken from ChEMBL document CHEMBL3588854, “Synthesis of 5-isoxazol-3-yl-pyrimidine nucleosides as potential antileishmanial agents” (Bioorg Med Chem Lett, 2015).
Activity calls are given as the source filed them. No cut-off for these calls is given here.

Tested on: Leishmania donovani
Test: Antileishmanial activity against amastigote stage of Leishmania donovani MHOM/ET/67/HU3 infected in mouse RAW264.7 cells assessed as inhibition of parasite growth after 48 hrs by SYBR green I incorporation assay
Format: functional, organism-based
Details: not given

For `CC(=O)OC[C@H]1O[C@@H](n2cc(-c3cc(-c4ccccc4)on3)c(=O)[nH]c2=O)C[C@@H]1N=[N+]=[N-]`, the “growth inhibition (GI)” value was “inactive”.
For `CC(=O)OC[C@H]1O[C@@H](n2cc(-c3cc(-c4ccc(Br)cc4)on3)c(=O)[nH]c2=O)C[C@@H]1OC(C)=O`, the “growth inhibition (GI)” value was “inactive”.
`CC(=O)OC[C@H]1O[C@@H](n2cc(-c3cc(CBr)on3)c(=O)[nH]c2=O)C[C@@H]1OC(C)=O` was tested, and the “growth inhibition (GI)” value was “inactive”.
In the case of `CC(=O)OC[C@H]1O[C@@H](n2cc(-c3cc(-c4ccccc4)on3)c(=O)[nH]c2=O)[C@H](OC(C)=O)[C@@H]1OC(C)=O`, the “growth inhibition (GI)” value is reported as “inactive”.
`CC(=O)OC[C@H]1O[C@@H](n2cc(-c3cc(-c4ccccc4)on3)c(=O)[nH]c2=O)C[C@@H]1OC(C)=O` was tested, and the “growth inhibition (GI)” value was “inactive”.
In the case of `CC(=O)OC[C@@H]1C=C[C@H](n2cc(-c3cc(-c4ccccc4)on3)c(=O)[nH]c2=O)O1`, the “growth inhibition (GI)” value is reported as “inactive”.

Same assay, conditions: MHOM/ET/67/HU3, RAW264.7, 48 h

`CC(=O)OC[C@H]1O[C@@H](n2cc(-c3cc(CO)on3)c(=O)[nH]c2=O)C[C@@H]1OC(C)=O` and `CC(=O)OC[C@H]1O[C@@H](n2cc(-c3cc(CO)on3)c(N)nc2=O)C[C@@H]1OC(C)=O` are within 1.5-fold of each other in IC50: 3.39 µM for the first, 3.13 µM for the second.

First: CCCCCCCCCCCCCCCCOP(=O)([O-])OCC[N+](C)(C)C [MILTEFOSINE]
Second: CCCCCCCCc1cc(-c2cn([C@H]3C[C@H](OC(C)=O)[C@@H](COC(C)=O)O3)c(=O)[nH]c2=O)no1
The IC50 of the first is 3.6-fold lower: 5.75 µM for the first, 20.9 µM for the second. The first is the more potent here.

`CC(=O)OC[C@H]1O[C@@H](n2cc(-c3cc(-c4ccc(F)cc4)on3)c(=O)[nH]c2=O)[C@H](OC(C)=O)[C@@H]1OC(C)=O` and `CC(=O)OC[C@H]1O[C@@H](n2cc(-c3cc(-c4ccc(F)cc4)on3)c(=O)[nH]c2=O)C[C@@H]1OC(C)=O` are within 1.5-fold of each other in IC50: 0.78 µM for the first, 0.7 µM for the second.

Compared with `CC(=O)OC[C@H]1O[C@@H](n2cc(-c3cc(CO)on3)c(=O)[nH]c2=O)C[C@@H]1N=[N+]=[N-]`, `[N-]=[N+]=N[C@H]1C[C@H](n2cc(-c3cc(CO)on3)c(=O)[nH]c2=O)O[C@@H]1CO` is lower in IC50: over 12.5 µM for the first, 0.49 µM for the second. The second is the more potent here.

First: O=c1[nH]c(=O)n([C@H]2C[C@H](O)[C@@H](CO)O2)cc1-c1cc(CO)on1
Second: CCCCCCCCc1cc(-c2cn([C@H]3C[C@H](O)[C@@H](CO)O3)c(=O)[nH]c2=O)no1
The IC50 of the first is lower: 0.73 µM for the first, over 12.5 µM for the second.

`Cc1ccc(-c2cc(-c3cn([C@H]4C[C@H](O)[C@@H](CO)O4)c(=O)[nH]c3=O)no2)cc1` and `O=c1[nH]c(=O)n([C@H]2C[C@H](O)[C@@H](CO)O2)cc1-c1cc(-c2ccc(F)cc2)on1` are within 1.5-fold of each other in IC50: 0.61 µM for the first, 0.58 µM for the second.

`O=c1[nH]c(=O)n([C@H]2C[C@H](O)[C@@H](CO)O2)cc1-c1cc(-c2ccccc2)on1` and `Nc1nc(=O)n([C@H]2C[C@H](O)[C@@H](CO)O2)cc1-c1cc(-c2ccccc2)on1` are within 1.5-fold of each other in IC50: 0.76 µM for the first, 0.61 µM for the second.

First: O=c1[nH]c(=O)n([C@@H]2O[C@H](CO)[C@@H](O)[C@H]2O)cc1-c1cc(-c2ccc(F)cc2)on1
Second: CC(=O)OC[C@H]1O[C@@H](n2cc(-c3cc(-c4ccc(F)cc4)on3)c(=O)[nH]c2=O)C[C@@H]1N=[N+]=[N-]
The IC50 of the first is lower: 1.47 µM for the first, over 12.5 µM for the second.

First: O=c1[nH]c(=O)n([C@H]2C=C[C@@H](CO)O2)cc1-c1cc(-c2ccccc2)on1
Second: CC(=O)OC[C@H]1O[C@@H](n2cc(-c3cc(-c4ccccc4)on3)c(N)nc2=O)C[C@@H]1OC(C)=O
The IC50 of the first is 2.8-fold higher: 4.56 µM for the first, 1.61 µM for the second. The second is the more potent here.

Compared with `CC(=O)OC[C@H]1O[C@@H](n2cc(-c3cc(-c4ccc(C)cc4)on3)c(=O)[nH]c2=O)C[C@@H]1OC(C)=O`, `C[C@@H]1[C@H](O)[C@@H](C)/C=C/C=C/C=C/C=C/C=C/C=C/C=C/[C@H](O[C@@H]2O[C@H](C)[C@@H](O)[C@H](N)[C@@H]2O)C[C@@H]2O[C@](O)(C[C@@H](O)C[C@@H](O)[C@H](O)CC[C@@H](O)C[C@@H](O)CC(=O)O[C@H]1C)C[C@H](O)[C@H]2C(=O)O` [AMPHOTERICIN B] is 5.5-fold lower in IC50: 1.7 µM for the first, 0.31 µM for the second.
